# Measured values as given in paper PMC5064002, “Sintokamide A Is a Novel Antagonist of Androgen Receptor That Uniquely Binds Activation Function-1 in Its Amino-terminal Domain” (The Journal of Biological Chemistry, 2016).
# Assays:
# [1] = test system: LNCaP95 xenografts; assay: LNCaP95 xenografts in castrated mice; format: in vivo, NOD-SCID mice
# Experimental: At 48 h, total RNA was isolated using a PureLink RNA Mini kit (Invitrogen). For in vivo expression, tumors were harvested 3 days after last treatment, and RNA was extracted using TRIzol. Prior to cDNA generation, 4 μg of RNA were DNase-treated using DNase I (amplification grade; Sigma-Aldrich). DNase-treated RNA was split into two tubes (+RT and −RT), and cDNA was generated using the High Capacity RNA-cDNA kit (Applied Biosystems). Once complete, both reactions were adjusted to 5 ng/μl and stored at −20 °C. Approximately 5 ng of diluted cDNA and gene-specific primers were mixed with Platinum SYBR Green qPCR SuperMix-UDG with ROX (Invitrogen). The transcripts were measured using an ABI PRISM 7900 Sequence Detection System (Invitrogen). For all quantitative RT-PCR experiments, each sample was tested in triplicate, and gene expression levels were normalized to the reference gene RPL13A. Neuron-specific enolase (ENO2) (Gene ID, 2026; pair 1) and synaptophysin (SYP) (Gene ID, 6855; pair 2) human primers were from Sigma Life Science. All other primers were described previously ([4], [9]) and purchased from Integrated DNA Technologies.
# Male NOD-SCID mice bearing subcutaneous LNCaP or LNCaP95 tumors were castrated when the tumor volume reached ∼100 mm^3. Seven days after castration, animals were injected intratumorally with 30 mg/kg of body weight SINT1 or a matching volume of vehicle (DMSO) every 3 days for a total of 15 days. Animal behavior and body weight were observed throughout the study period for signs of toxicity. Tumor volumes were calculated by the formula length × width × height × 0.5236. Tumors were excised 3 days after the last injection and prepared for immunohistochemistry or gene expression.
# [2] = target: T1, progesterone receptor (PR)-β (Homo sapiens, UniProt P06401); assay: Steroid receptor specificity: PRE-luciferase reporter in LNCaP cells; format: cell-based; settings: 10 μM compound, 10 nM 4-pregnene-3,20-dione, 48 h
# T1 construct: expressed in transfected cells; host or cells: LNCaP
# T1 sequence (P06401 1-933): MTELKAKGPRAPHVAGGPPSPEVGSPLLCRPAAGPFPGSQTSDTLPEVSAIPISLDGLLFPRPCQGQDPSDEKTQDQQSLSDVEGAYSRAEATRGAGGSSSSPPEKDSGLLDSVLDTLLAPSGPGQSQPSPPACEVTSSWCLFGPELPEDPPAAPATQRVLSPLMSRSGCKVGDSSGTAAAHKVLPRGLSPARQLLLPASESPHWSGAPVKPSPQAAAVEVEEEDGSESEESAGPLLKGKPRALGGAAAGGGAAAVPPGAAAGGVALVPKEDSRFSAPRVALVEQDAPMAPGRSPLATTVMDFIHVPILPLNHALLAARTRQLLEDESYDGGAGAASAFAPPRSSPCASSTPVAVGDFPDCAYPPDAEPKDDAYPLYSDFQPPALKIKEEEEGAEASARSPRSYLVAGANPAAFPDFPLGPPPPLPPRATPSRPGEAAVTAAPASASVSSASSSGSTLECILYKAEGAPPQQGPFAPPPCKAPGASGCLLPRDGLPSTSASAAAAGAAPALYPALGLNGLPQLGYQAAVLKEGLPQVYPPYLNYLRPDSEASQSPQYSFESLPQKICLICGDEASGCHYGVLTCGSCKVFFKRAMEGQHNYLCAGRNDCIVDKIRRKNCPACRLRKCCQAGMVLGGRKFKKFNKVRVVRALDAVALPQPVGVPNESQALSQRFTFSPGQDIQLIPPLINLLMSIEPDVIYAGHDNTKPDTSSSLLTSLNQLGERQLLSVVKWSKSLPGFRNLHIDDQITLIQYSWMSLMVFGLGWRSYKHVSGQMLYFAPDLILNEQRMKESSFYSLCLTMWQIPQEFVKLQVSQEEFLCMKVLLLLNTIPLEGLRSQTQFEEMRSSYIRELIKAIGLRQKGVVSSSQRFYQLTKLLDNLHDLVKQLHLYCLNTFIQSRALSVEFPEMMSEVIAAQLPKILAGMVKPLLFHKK
# Experimental: (§1) LNCaP cells were transfected with the reporter plasmid PSA(6.1kb)-luciferase, PRE-luciferase, or GRE-luciferase and expression vector for progesterone receptor (PR)-β or glucocorticoid receptor (GR)-α in serum-free, phenol red-free medium using Lipofectin (Invitrogen). […] After 48 h of treatment, cells were lysed and analyzed for luciferase activities.
# (§2) FIGURE 1. […] A, LNCaP cells were transfected with PSA (6.1 kb)-luciferase, PRE-luciferase, or GRE-luciferase reporters and expression vector for PRβ or GRα. […] Error bars represent mean percentage of vehicle activity ±S.E. of at least three independent experiments with triplicate wells. SINT1, 10 μM; […]; ***, p < 0.001. […]. Error bars represents mean ± S.E. of three technical replicates. […] DAPI staining indicates the location of the nucleus. Scale bars, 20 μm.
# [3] = target: T2, glucocorticoid receptor (GR)-α (Homo sapiens, UniProt P04150); assay: Steroid receptor specificity: GRE-luciferase reporter in LNCaP cells; format: cell-based; settings: 10 μM compound, 10 nM dexamethasone, 48 h
# T2 construct: expressed in transfected cells; host or cells: LNCaP
# T2 sequence (P04150 1-777): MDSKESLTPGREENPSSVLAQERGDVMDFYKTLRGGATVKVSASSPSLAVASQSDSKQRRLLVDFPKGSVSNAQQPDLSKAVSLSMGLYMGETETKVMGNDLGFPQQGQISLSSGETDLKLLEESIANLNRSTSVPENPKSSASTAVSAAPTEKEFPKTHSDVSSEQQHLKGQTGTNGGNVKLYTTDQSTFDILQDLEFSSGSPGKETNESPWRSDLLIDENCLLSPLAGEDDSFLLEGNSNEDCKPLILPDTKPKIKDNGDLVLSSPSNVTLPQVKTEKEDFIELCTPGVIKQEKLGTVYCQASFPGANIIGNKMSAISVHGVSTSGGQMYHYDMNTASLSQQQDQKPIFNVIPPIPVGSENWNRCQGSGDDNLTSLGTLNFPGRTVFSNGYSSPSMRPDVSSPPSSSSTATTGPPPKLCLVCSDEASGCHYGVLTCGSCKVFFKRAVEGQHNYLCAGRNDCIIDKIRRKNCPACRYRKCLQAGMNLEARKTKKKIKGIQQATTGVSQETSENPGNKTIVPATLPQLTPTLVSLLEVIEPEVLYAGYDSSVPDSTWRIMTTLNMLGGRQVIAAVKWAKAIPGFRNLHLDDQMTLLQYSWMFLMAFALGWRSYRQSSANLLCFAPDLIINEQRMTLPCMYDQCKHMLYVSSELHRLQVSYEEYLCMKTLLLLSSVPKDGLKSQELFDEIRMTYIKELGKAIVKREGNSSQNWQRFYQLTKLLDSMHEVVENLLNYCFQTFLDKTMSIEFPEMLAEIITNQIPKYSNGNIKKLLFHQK
# Experimental: as §1, §2
compound,measurement,setting,value
"CCC(=O)NC(CC(C)C(Cl)(Cl)Cl)C(=O)N1C(=O)C=C(OC)C1CC(C)C(Cl)Cl (centres unmarked) [SINT1, Sintokamide A]",growth of LNCaP95 tumors,"[1]; castrated mice, 30 mg/kg intratumorally every 3 days",significantly reduce the growth
same,levels of expression of ENO2 and SYP genes (neuroendocrine differentiation),[1]; harvested LNCaP95 xenografts,no significant changes
same,levels of FL-AR and AR-V7 transcripts in harvested LNCaP95 xenografts,[1]; tumors harvested 3 days after last treatment,not significantly altered
same,PR transcriptional activity (PRE-luciferase),[2],did not affect
same,GR transcriptional activity (GRE-luciferase),[3],did not affect
